According to patent publication US20260250290A1 (BRISTOL-MYERS SQUIBB COMPANY, priority 2023, published 2026):
Counter-ions that a name gives are not always drawn.

Target: T1, full length SGK1 (Homo sapiens, UniProt O00141)
T1 construct: 125 μM full length SGK1 (Life Technologies Part #PR7358A); purchased Life Technologies PR7358A
T1 sequence (O00141 1-431): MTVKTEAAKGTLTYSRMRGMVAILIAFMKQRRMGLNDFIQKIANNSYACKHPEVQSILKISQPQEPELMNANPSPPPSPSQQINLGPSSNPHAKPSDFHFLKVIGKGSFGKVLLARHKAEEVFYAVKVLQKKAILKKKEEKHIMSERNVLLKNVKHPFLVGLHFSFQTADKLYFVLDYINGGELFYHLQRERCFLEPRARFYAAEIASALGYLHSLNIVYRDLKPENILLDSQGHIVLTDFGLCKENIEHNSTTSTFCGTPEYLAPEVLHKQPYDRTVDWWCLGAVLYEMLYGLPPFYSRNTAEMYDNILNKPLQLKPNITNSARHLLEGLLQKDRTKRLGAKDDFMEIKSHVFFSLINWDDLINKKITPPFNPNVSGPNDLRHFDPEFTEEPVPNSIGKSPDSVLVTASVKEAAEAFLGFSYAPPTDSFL
Assay: SGK1 inhibition Assay A (Caliper LabChip electrophoretic separation of fluorescent peptide substrate and phosphorylated product)
Type: biochemical
Conditions: Assay A; 20 μM ATP, 40 min incubation; read-out: SGK1 IC50

IC50 [nM]	Compound
12	COC(=O)N1CC=C(c2cc(N3CCC[C@@H](NC(=O)c4sc(Cl)cc4OC4CCN(CC(F)F)CC4)C3)c3c(N)ncnn23)C1 [Example 566, methyl (R)-3-(4-amino-5-(3-(5-chloro-3-((1-(2,2-difluoroethyl)piperidin-4-yl)oxy)thiophene-2-carboxamido)piperidin-1-yl)pyrrolo[2,1-f][1,2,4]triazin-7-yl)-2,5-dihydro-1H-pyrrole-1-carboxylate]
98	CCn1cc(-c2cc(N3CCC[C@@H](NC(=O)c4sc(Cl)cc4OCCN(C)C)C3)c3c(N)ncnn23)cc(C)c1=O [Example 692, (R)—N-(1-(4-amino-7-(1-ethyl-5-methyl-6-oxo-1,6-dihydropyridin-3-yl)pyrrolo[2,1-f][1,2,4]triazin-5-yl)piperidin-3-yl)-5-chloro-3-(2-(dimethylamino)ethoxy)thiophene-2-carboxamide]
10	CS(=O)(=O)c1ccc(-c2cc(N3CC[C@@H](F)[C@@H](NC(=O)c4ccc(Cl)s4)C3)c3c(N)ncnn23)cc1 (relative stereo) [Example 143, rel-N-((3R,4S)-1-(4-amino-7-(4-(methylsulfonyl)phenyl)pyrrolo[2,1-f][1,2,4]triazin-5-yl)-4-fluoropiperidin-3-yl)-5-chlorothiophene-2-carboxamide, TFA]
1	COC(=O)N1CC=C(c2cc(N3CCC[C@@H](NC(=O)c4sc(C5CC5)cc4OCCN(C)C)C3)c3c(N)ncnn23)C1 [Example 371, Methyl (R)-3-(4-amino-5-(3-(5-cyclopropyl-3-(2-(dimethylamino)ethoxy)thiophene-2-carboxamido)piperidin-1-yl)pyrrolo[2,1-f][1,2,4]triazin-7-yl)-2,5-dihydro-1H-pyrrole-1-carboxylate]
3	CC(=O)NCC(=O)N1CC=C(c2cc(N3CCC[C@@H](NC(=O)c4ccc(Cl)s4)C3)c3c(N)ncnn23)C1 [Example 914, (R)—N-(1-(7-(1-(acetylglycyl)-2,5-dihydro-1H-pyrrol-3-yl)-4-aminopyrrolo[2,1-f][1,2,4]triazin-5-yl)piperidin-3-yl)-5-chlorothiophene-2-carboxamide]
0.6	CC(=O)N1CC=C(c2cc(N3CCC[C@@H](NC(=O)c4sc(Cl)cc4O[C@@H]4C[C@H]5CC[C@@H](C4)N5C)C3)c3c(N)ncnn23)C1 [Example 612, N—((R)-1-(7-(1-acetyl-2,5-dihydro-1H-pyrrol-3-yl)-4-aminopyrrolo[2,1-f][1,2,4]triazin-5-yl)piperidin-3-yl)-5-chloro-3-((8-methyl-8-azabicyclo[3.2.1]octan-3-yl)oxy)thiophene-2-carboxamide]
5	CN1CCN(CCOc2cc(Cl)sc2C(=O)N[C@@H]2CCCN(c3cc(C4=CCN(S(C)(=O)=O)C4)n4ncnc(N)c34)C2)CC1 [Example 273, (R)—N-(1-(4-amino-7-(1-(methylsulfonyl)-2,5-dihydro-1H-pyrrol-3-yl)pyrrolo[2,1-f][1,2,4]triazin-5-yl)piperidin-3-yl)-5-chloro-3-(2-(4-methylpiperazin-1-yl)ethoxy)thiophene-2-carboxamide]
46	CC(=O)N1CC=C(c2cc(N3CCC[C@@H](NC(=O)c4cccc(NC5CC(=O)N(C)C5)n4)C3)c3c(N)ncnn23)C1 (stereo partly drawn) [Example 768, N-((R)-1-(7-(1-acetyl-2,5-dihydro-1H-pyrrol-3-yl)-4-aminopyrrolo[2,1-f][1,2,4]triazin-5-yl)piperidin-3-yl)-6-((1-methyl-5-oxopyrrolidin-3-yl)amino)picolinamide]
37	CC(=O)N1CC=C(c2cc(N3CCC[C@@H](NC(=O)c4sc(Cl)cc4OC4CCCN(C)C4)C3)c3c(N)ncnn23)C1 (single isomer, unassigned) [Example 595]
26	CC(=O)N1CC=C(c2cc(N3CCC[C@@H](NC(=O)c4ccc(S(C)(=O)=O)cc4)C3)c3c(N)ncnn23)C1 [Example 468, (R)-N-(1-(7-(1-acetyl-2,5-dihydro-1H-pyrrol-3-yl)-4-aminopyrrolo[2,1-f][1,2,4]triazin-5-yl)piperidin-3-yl)-4-(methylsulfonyl)benzamide]
3	COC(=O)N1CC=C(c2cc(N3CCC[C@@H](NC(=O)c4sc(Cl)cc4OC4CCN(C5COC5)CC4)C3)c3c(N)ncnn23)C1 [Example 572, Methyl (R)-3-(4-amino-5-(3-(5-chloro-3-((1-(oxetan-3-yl)piperidin-4-yl)oxy)thiophene-2-carboxamido)piperidin-1-yl)pyrrolo[2,1-f][1,2,4]triazin-7-yl)-2,5-dihydro-1H-pyrrole-1-carboxylate]
3	CN1CCC(Oc2cc(C(F)F)sc2C(=O)N[C@@H]2CCCN(c3cc(-c4ccc(C#N)c(F)c4)n4ncnc(N)c34)C2)CC1 [Example 440, (R)-N-(1-(4-amino-7-(4-cyano-3-fluorophenyl)pyrrolo[2,1-f][1,2,4]triazin-5-yl)piperidin-3-yl)-5-(difluoromethyl)-3-((1-methylpiperidin-4-yl)oxy)thiophenc-2-carboxamide]
114	Cn1cc(-c2cc(N3CCC[C@@H](NC(=O)c4ccc(Cl)s4)C3)c3c(N)ncnn23)nn1 [Example 868, (R)—N-(1-(4-amino-7-(1-methyl-1H-1,2,3-triazol-4-yl)pyrrolo[2,1-f][1,2,4]triazin-5-yl)piperidin-3-yl)-5-chlorothiophene-2-carboxamide]
5	Nc1ncnn2c(-c3ccncc3)cc(N3CCC[C@@H](NC(=O)c4ccccc4)C3)c12 [Example 126, N-[(3R)-1-[4-amino-7-(pyridin-4-yl)pyrrolo[2,1-f][1,2,4]triazin-5-yl]piperidin-3-yl]benzamide]
8	CS(=O)(=O)c1ccc(-c2cc(N3CCC[C@@H](NC(=O)c4cccs4)C3)c3c(N)ncnn23)cc1 [Example 88, (R)-N-(1-(4-amino-7-(4-(methylsulfonyl)phenyl)pyrrolo[2,1-f][1,2,4]triazin-5-yl)piperidin-3-yl)thiophene-2-carboxamide, TFA]
9	Nc1ncnn2c(-c3ccnc(C(F)F)c3)cc(N3CCC[C@@H](NC(=O)c4sc(Cl)cc4OCCN4CCC(F)(F)CC4)C3)c12 [Example 293, (R)-N-(1-(4-amino-7-(2-(difluoromethyl)pyridin-4-yl)pyrrolo[2,1-f][1,2,4]triazin-5-yl)piperidin-3-yl)-5-chloro-3-(2-(4,4-difluoropiperidin-1-yl)ethoxy)thiophene-2-carboxamide]
15	CC(=O)N1CC=C(c2cc(N3CCC[C@@H](NC(=O)c4sc(C(F)F)cc4OCCN(C)C)C3)c3c(N)ncnn23)C1 [Example 305, (R)-N-(1-(7-(1-acetyl-2,5-dihydro-1H-pyrrol-3-yl)-4-aminopyrrolo[2,1-f][1,2,4]triazin-5-yl)piperidin-3-yl)-5-(difluoromethyl)-3-(2-(dimethylamino)ethoxy)thiophene-2-carboxamide]
7	Nc1ncnn2c(-c3ccnc(C(F)F)c3)cc(N3CCC[C@@H](NC(=O)c4sc(Cl)cc4OCCN4CCC(F)(F)C4)C3)c12 [Example 294, (R)-N-(1-(4-amino-7-(2-(difluoromethyl)pyridin-4-yl)pyrrolo[2,1-f][1,2,4]triazin-5-yl)piperidin-3-yl)-5-chloro-3-(2-(3,3-difluoropyrrolidin-1-yl)ethoxy)thiophene-2-carboxamide]
29	Cc1ccc(C(=O)N(C)[C@@H]2CCCN(c3cc(-c4ccc(S(C)(=O)=O)cc4)n4ncnc(N)c34)C2)s1 [Example 122, (R)—N-(1-(4-amino-7-(4-(methylsulfonyl)phenyl)pyrrolo[2,1-f][1,2,4]triazin-5-yl)piperidin-3-yl)-N,5-dimethylthiophene-2-carboxamide]
6	COC(=O)N1CC=C(c2cc(N3CCC[C@@H](NC(=O)c4sc(Cl)cc4OC4CCN(C5CC5)CC4)C3)c3c(N)ncnn23)C1 [Example 616, methyl (R)-3-(4-amino-5-(3-(5-chloro-3-((1-cyclopropylpiperidin-4-yl)oxy)thiophene-2-carboxamido)piperidin-1-yl)pyrrolo[2,1-f][1,2,4]triazin-7-yl)-2,5-dihydro-1H-pyrrole-1-carboxylate]
276	N#Cc1ccc2[nH]nc(C(=O)N[C@@H]3CCCN(c4cc(-c5cncnc5)n5ncnc(N)c45)C3)c2c1 [Example 685, (R)—N-(1-(4-amino-7-(pyrimidin-5-yl)pyrrolo[2,1-f][1,2,4]triazin-5-yl)piperidin-3-yl)-5-cyano-1H-indazole-3-carboxamide]
4	Nc1ncnn2c(-c3ccc4nncn4c3)cc(N3CCC[C@@H](NC(=O)c4ccc(Cl)s4)C3)c12 [Example 252]
118	N#Cc1ncc(-c2cc(N3CCC[C@@H](NC(=O)c4ccc(C(F)F)s4)C3)c3c(N)ncnn23)cc1F [Example 523, (R)-N-(1-(4-amino-7-(6-cyano-5-fluoropyridin-3-yl)pyrrolo[2,1-f][1,2,4]triazin-5-yl)piperidin-3-yl)-5-(difluoromethyl)thiophene-2-carboxamide]
8	COC(=O)N1CC=C(c2cc(N3CCC[C@@H](NC(=O)c4sc(Cl)cc4OCC4CCNCC4)C3)c3c(N)ncnn23)C1 [Example 571, Methyl (R)-3-(4-amino-5-(3-(5-chloro-3-(piperidin-4-ylmethoxy)thiophene-2-carboxamido)piperidin-1-yl)pyrrolo[2,1-f][1,2,4]triazin-7-yl)-2,5-dihydro-1H-pyrrole-1-carboxylate]

Compound	IC50 [nM]
(R)-2-(1-(7-(1-acetyl-2,5- dihydro-1H-pyrrol-3-yl)- 4-aminopyrrolo[2,1- f][1,2,4]triazin-5- yl)piperidin-3-yl)-1,1,3,3- tetramethylguanidine [Example 724]	15
